Earlier results on seven compounds are cited in US6110955A, “Metabolically stabilized oxyalkylene esters and uses thereof” (Beacon Laboratories, Inc., priority 1997, dated 2000).

Series [1] deals with primary and immortalized cell lines. The following applies: cited from earlier work.
The subject of series [2] is mitochondrial β-oxidation of fatty acids. The following applies: cited from earlier work.

Take `CCCC(=O)OCC(COC(=O)CCC)OC(=O)CCC` [Tributyrin]: the “expression of a reporter gene” value in series [1] was “enhance the expression of a reporter gene in primary and immortalized cell lines”. As for `O=C(O)CCCCCCNC1c2ccccc2CCc2ccccc21` [aminetepine], the “mitochondrial β-oxidation of fatty acids” value in series [2] is recorded as “decrease mitochondrial β-oxidation of fatty acids”. On to `CC(C)Cc1ccc(C(C)C(=O)O)cc1` (stereo not shown) [ibuprofen], for which, in series [2], the “mitochondrial β-oxidation of fatty acids” value was “decrease mitochondrial β-oxidation of fatty acids”. Take `O=C(O)c1ccccc1O` [salicylic acid]: the “mitochondrial β-oxidation of fatty acids” value in series [2] was “decrease mitochondrial β-oxidation of fatty acids”. In the case of `CN(C)C1C(=O)C(C(N)=O)=C(O)C2(O)C(=O)C3=C(O)c4c(O)cccc4C(C)(O)C3CC12` (stereo not shown) [tetracycline], the “mitochondrial β-oxidation of fatty acids” value in series [2] is listed as “decrease mitochondrial β-oxidation of fatty acids”. Consider `CN1c2ccccc2C(NCCCCCCC(=O)O)c2ccc(Cl)cc2S1(=O)=O` (stereo not shown) [tianeptine], for which, in series [2], the “mitochondrial β-oxidation of fatty acids” value is “decrease mitochondrial β-oxidation of fatty acids”.

`CCCC(CCC)C(=O)O` [valproic acid]: the “mitochondrial β-oxidation of fatty acids” value in series [2] is given as “decrease mitochondrial β-oxidation of fatty acids”.
